From US8153647B2, “Aryl- and heteroaryl-ethyl-acylguanidine derivatives, their preparation and their application in therapeutics” (Sanofi-Aventis, priority 2006, dated 2012)
Where a name gives a salt, the structure may show the parent alone.

Target: T1, Recombinant human renin (Homo sapiens, UniProt P00797)
T1 construct: made in house; host or cells: Chinese Hamster Ovary (CHO) cells
T1 sequence (P00797 67-406): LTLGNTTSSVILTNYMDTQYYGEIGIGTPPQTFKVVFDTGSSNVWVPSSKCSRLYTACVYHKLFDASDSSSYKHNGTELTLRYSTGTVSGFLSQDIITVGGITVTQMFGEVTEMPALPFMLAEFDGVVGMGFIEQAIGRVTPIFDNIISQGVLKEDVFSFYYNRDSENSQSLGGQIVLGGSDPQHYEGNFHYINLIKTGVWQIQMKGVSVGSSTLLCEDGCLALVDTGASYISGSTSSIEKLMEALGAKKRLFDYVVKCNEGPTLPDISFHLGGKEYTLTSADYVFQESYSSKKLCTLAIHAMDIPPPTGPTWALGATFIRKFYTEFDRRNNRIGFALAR
Assay: Renin inhibition in a purified system (FRET, synthetic substrate Dabcyl-gaba-IHPFHLVIHT-EDANS)
Type: biochemical
Conditions: renin 10 nM, substrate 10 μM, 2 h, room temperature, pH 8
Procedure: The protocol for the determination in a purified system of the in vitro IC50s of the compounds of the invention is described hereafter.
Recombinant human renin (expressed as prorenin in Chinese Hamster Ovary and purified after activation in active renin using standard methods) at 10 nM concentration is incubated with test compounds at various concentrations and the synthetic substrate Dabcyl-gaba-IHPFHLVIHT-EDANS (Bachem) at 10 μM for 2 h at room temperature, in 0.05 M Tris buffer pH 8 containing 0.1 M NaCl, 2.5 mM EDTA and 1.25 mg/ml bovine serum albumin. Increase in fluorescence (due to the Fluorescence Resonance Energy Transfer) is recorded at an excitation wave-length of 330 nm and at an emission wave length of 485 nm in a microplate spectrofluorometer. IC50 values are calculated from the percentage of inhibition of renin activity as a function of test compound concentration.

| Compound | IC50 [nM] |
| --- | --- |
| COCCCOc1cc(CCC(=O)NC(=N)NCCc2ccccn2)ccc1-c1ccc(CN2CCC(N(C)C)CC2)cc1 [Compound 6] | 100 |
| CCCCNC(=N)NC(=O)CCc1ccc(-c2ccc(CN3CCN(CC(=O)N(C)C)CC3)cc2)c(OCCCOC)c1 [Compound 30] | 70 |
| CCCCNC(=N)NC(=O)CCc1ccc(-c2ccc(CNCC(c3ccccc3)N(C)C)cc2)c(OCCCOC)c1 (stereo not shown) [Compound 48, N-butyl-N′-{3-[4′-[(2-dimethylamino-2-phenyl-ethylamino)-methyl]-2-(3-methoxy-propoxy)-biphenyl-4-yl]-propionyl}-guanidine, trifluoro-acetic acid salt] | 143 |
| COCCCOc1cc(CCC(=O)NC(=N)N)ccc1-c1ccc(CN2CCC(N(C)C)CC2)cc1 [Compound 2, N-[amino(imino)methyl]-3-[4′-{[4-(dimethylamino)piperidin-1-yl]methyl}-2-(3-methoxypropoxy)biphenyl-4-yl]propanamide hydrochloride] | 19 |
| CNC(=N)NC(=O)CCc1ccc(-c2ccc(Cl)c(CS(=O)(=O)C(C)(C)C)c2)c(OCCCOC)c1 [Compound 194, 3-{3′-[(tert-butylsulfonyl)methyl]-4′-chloro-2-(3-methoxypropoxy)biphenyl-4-yl}-N-(methylcarbamimidoyl)propanamide hydrochloride] | 48 |
| COCCCOc1cc(CCC(=O)NC(=N)N)ccc1-c1cccc(CN2CCCCC2=O)c1 [Compound 179] | 19 |
| COCCCOc1cc(CCC(=O)NC(=N)N)ccc1-c1nccs1 [Compound 157] | 126 |
| COCCCOc1cc(CCC(=O)NC(=N)N)ccc1-c1cccnc1 [Compound 21, hydrochloride] | 98 |
| COCCCOc1cc(CCC(=O)NC(=N)NCCC(C)C)ccc1-c1ccc(CN2CCC(N(C)C)CC2)cc1 [Compound 11] | 23 |
| COCCCOc1cc(C(C)(C)CC(=O)NC(=N)N)ccc1-c1ccc(CN2CCC(N(C)C)CC2)cc1 [Compound 22] | 10 |
| COCCCOc1cc(CCC(=O)NC(=N)N)ccc1-c1ccc(CN2CCCCC2)cc1 [Compound 13, N-[amino(imino)methyl]-3-[2-(3-methoxypropoxy)-4′-(piperidin-1-ylmethyl)biphenyl-4-yl]propanamide hydrochloride] | 79 |
| COCCCOc1cc(CCC(=O)NC(=N)N)ccc1-c1ccc(CN2CCN(C)C2=O)cc1 [Compound 173] | 53 |
| CCCNC(=N)NC(=O)CC(C)(C)c1ccc(-c2ccc(C(=O)N3CCN(C)CC3)cc2)c(OCCCOC)c1 [Compound 25, N-[imino(propylamino)methyl]-3-{2-(3-methoxypropoxy)-4′-[(4-methylpiperazin-1-yl)carbonyl]biphenyl-4-yl}-3-methylbutanamide hydrochloride] | 228 |
| COCCCOc1cc(CCC(=O)NC(=N)N)ccc1-c1ccc(CN2CCN(C)CC2=O)cc1 [Compound 78] | 42 |

System: not given
Assay: not given
Conditions: not given

| Compound | melting point [°C] |
| --- | --- |
| COCCCOc1cc(C(C)(C)CC(=O)NC(=N)N)ccc1-c1ccc(CN2CCC(N(C)C)CC2)cc1 (as salt: HCl) [Compound 22] | 105.5 |
| COCCCOc1cc(CCC(=O)NC(=N)N)ccc1-c1ccc(CN2CCN(C)CC2=O)cc1 (as salt: HCl) [Compound 78] | 61.5 |
| COCCCOc1cc(CCC(=O)NC2=NC(=O)C(C)(C)CN2)ccc1-c1ccc(CN2CCC(N(C)C)CC2)cc1.Cl | 132 |
| CNC(=N)NC(=O)CCc1ccc(-c2cccc(N(C)C(=O)N3CCOCC3)c2)c(OCCCOC)c1.Cl | 54 to 55 |
| COCCCOc1cc(CCC(=O)NC(=N)NCCc2ccccn2)ccc1-c1ccc(CN2CCC(N(C)C)CC2)cc1 (as salt: HCl) [Compound 6] | 128 |
